Test results from patent US11407736B2 (priority 2019, dated 2022).

Key:
L929 cells = assay: L929 cell necroptosis assay (TNFa + zVAD, CellTiter-Glo); assay type: cell-based, murine; details: Mus musculus, L929, L929 cells, TNFa + zVAD; read-out: L929-CTG-recovery, L929, TNFa + zVAD (IC50)
How it was run: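 Murine L929 cells, plated 18 h beforehand at 10K cells/well in RPMI 1640 with 10% FBS, were switched to medium containing 40 uM zVAD-fmk and given compound from 4-fold serial dilutions. Viability after 18 h of TNFa stimulation at 37° C was read by CellTiter-Glo luminescence.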

RIPK1 = RIPK1 (Homo sapiens (Human), UniProt Q13546); assay: RIPK1 ADP-Glo biochemical kinase assay; details: read-out: RIPK1 ADP-Glo Kinase (IC50)
Experimental: The final reaction volume was 5.0ul.
Adding 5 μl of ADP-Glo™ terminated the reaction.

U937 cells = assay: U937 cell necroptosis assay (TNFa + zVAD, CellTiter-Glo); assay type: cell-based, human; details: Homo sapiens, U-937, U937 cells, TNFa + zVAD; read-out: U937 Zvad TNF CTG Recovery, U937, TNFa + zVAD (IC50)
How it was run: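 Human U937 and murine L929 cells in RPMI 1640/10% FBS were pre-incubated 1 h at 37 °C with serially diluted compound plus zVAD-fmk (U937 plated with 60 uM, L929 medium with 40 uM), then stimulated with 2 ng/mL TNFa (final). Viability read by CellTiter-Glo luminescence after 18 h.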

Chain of RIPK1 (Q13546 whole entry, species assumed): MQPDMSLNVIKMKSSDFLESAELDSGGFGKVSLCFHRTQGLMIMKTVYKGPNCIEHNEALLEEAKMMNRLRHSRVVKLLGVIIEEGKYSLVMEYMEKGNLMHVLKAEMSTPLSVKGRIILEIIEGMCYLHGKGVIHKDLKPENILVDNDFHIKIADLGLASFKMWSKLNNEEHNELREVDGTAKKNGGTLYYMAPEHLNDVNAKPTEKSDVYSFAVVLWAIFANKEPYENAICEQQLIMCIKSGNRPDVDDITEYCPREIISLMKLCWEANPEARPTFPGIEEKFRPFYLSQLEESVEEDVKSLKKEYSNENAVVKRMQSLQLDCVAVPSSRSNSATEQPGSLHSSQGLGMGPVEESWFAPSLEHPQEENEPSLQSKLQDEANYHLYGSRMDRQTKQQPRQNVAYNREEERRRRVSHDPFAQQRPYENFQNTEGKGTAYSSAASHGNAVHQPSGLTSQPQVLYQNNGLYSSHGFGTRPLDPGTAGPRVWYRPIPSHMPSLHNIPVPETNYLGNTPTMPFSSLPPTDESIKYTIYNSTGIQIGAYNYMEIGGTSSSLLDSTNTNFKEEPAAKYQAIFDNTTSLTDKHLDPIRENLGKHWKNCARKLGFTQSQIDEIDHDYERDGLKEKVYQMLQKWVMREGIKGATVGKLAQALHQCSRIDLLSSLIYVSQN

IC50 (RIPK1) [nM]	SMILES	IC50 (L929 cells) [nM]	IC50 (U937 cells) [nM]
45.2	CN1C(=O)[C@@H](NC(=O)c2cc(Oc3ccccc3)ccn2)COc2cc(C#Cc3ccccn3)ccc21 [II-16, (S)—N-(5-methyl-4-oxo-8-(pyridin-2-ylethynyl)-2,3,4,5-tetrahydrobenzo[b][1,4]oxazepin-3-yl)-4-phenoxypicolinamide]	2120	3.4
17.2	CN1C(=O)[C@@H](NC(=O)c2cc(Oc3ccccc3)ccn2)COc2ccc(C#CC3(O)C[S+]([O-])C3)cc21 (stereo partly drawn) [Compound I-208, (S)—N-(7-((3-Hydroxy-1-oxidothietan-3-yl)ethynyl)-5-methyl-4-oxo-2,3,4,5-tetrahydrobenzo[b][1,4]oxazepin-3-yl)-4-phenoxypicolinamide]	97.5	0.6
33	CN1C(=O)[C@@H](NC(=O)n2cc(Cc3ccc(F)cc3)cn2)COc2ccc(C#CC(C)(C)N)cc21 [Compound I-226, (S)—N-(7-(3-amino-3-methylbut-1-yn-1-yl)-5-methyl-4-oxo-2,3,4,5-tetrahydrobenzo[b][1,4]oxazepin-3-yl)-4-(4-fluorobenzyl)-1H-pyrazole-1-carboxamide]	1770	17
19.7	CC(=O)N1CC(F)(C#Cc2ccc3c(c2)N(C)C(=O)[C@@H](NC(=O)c2cc(Oc4ccccc4)ccn2)CO3)C1 [Compound I-191, (S)—N-(7-((1-acetyl-3-fluoroazetidin-3-yl)ethynyl)-5-methyl-4-oxo-2,3,4,5-tetrahydrobenzo[b][1,4]oxazepin-3-yl)-4-phenoxypicolinamide]	21.5	0.3
76.9	C=C(C#Cc1ccc2c(c1)N(C)C(=O)[C@@H](NC(=O)c1cc(Oc3ccc(F)cc3)ccn1)CO2)CCNC [Compound I-138, (S)-4-(4-fluorophenoxy)-N-(5-methyl-7-(5-(methylamino)-3-methylenepent-1-yn-1-yl)-4-oxo-2,3,4,5-tetrahydrobenzo[b][1,4]oxazepin-3-yl)picolinamide]	3150	122
16.6	CN1C(=O)[C@@H](NC(=O)n2cc(Cc3ccc(F)cc3)cn2)COc2ccc(C#CC3(O)COC3)cc21 [Compound I-222, (S)-4-(4-Fluorobenzyl)-N-(7-((3-hydroxyoxetan-3-yl)ethynyl)-5-methyl-4-oxo-2,3,4,5-tetrahydrobenzo[b][1,4]oxazepin-3-yl)-1H-pyrazole-1-carboxamide]	62.5	1.4
40.9	CN1C(=O)[C@@H](NC(=O)c2cc(Oc3cccc(C#N)c3)ccn2)COc2cc(C#CC(C)(C)O)ccc21 [II-21, (S)-4-(3-cyanophenoxy)-N-(8-(3-hydroxy-3-methylbut-1-yn-1-yl)-5-methyl-4-oxo-2,3,4,5-tetrahydrobenzo[b][1,4]oxazepin-3-yl)picolinamide]	3440	14.3
23	CN1C(=O)[C@@H](NC(=O)c2cc(Oc3ccccc3)ccn2)COc2ccc(C#CC3CCCN3)cc21 (stereo partly drawn) [II-39, N-((3S)-5-methyl-4-oxo-7-(pyrrolidin-2-ylethynyl)-2,3,4,5-tetrahydrobenzo[b][1,4]oxazepin-3-yl)-4-phenoxypicolinamide]	1350	1.8
76.2	CN1C(=O)[C@@H](NC(=O)n2cc(Cc3ccccc3)cn2)COc2ccc(C#Cc3cccnc3)cc21 [Compound I-214, (S)-4-Benzyl-N-(5-methyl-4-oxo-7-(pyridin-3-ylethynyl)-2,3,4,5-tetrahydrobenzo[b][1,4]oxazepin-3-yl)-1H-pyrazole-1-carboxamide]	352	4

Continued, compound first:

SMILES	IC50 (RIPK1) [nM]	IC50 (L929 cells) [nM]	IC50 (U937 cells) [nM]
CC(C)Cn1cnc(C(=O)N[C@H]2COc3ccc(C#CC(C)(C)O)cc3N(C)C2=O)n1 [Compound I-85, (S)—N-(7-(3-hydroxy-3-methylbut-1-yn-1-yl)-5-methyl-4-oxo-2,3,4,5-tetrahydrobenzo[b][1,4]oxazepin-3-yl)-1-isobutyl-1H-1,2,4-triazole-3-carboxamide]	42.3	0.6	3.3
CN1C(=O)[C@@H](NC(=O)c2cc(Oc3cccc(F)c3)ccn2)COc2ccc(C#CC(C)(C)C)cc21 [Compound I-106, (S)—N-(7-(3,3-dimethylbut-1-yn-1-yl)-5-methyl-4-oxo-2,3,4,5-tetrahydrobenzo[b][1,4]oxazepin-3-yl)-4-(3-fluorophenoxy)picolinamide]	582	481	5.5
CN1C(=O)[C@@H](NC(=O)c2n[nH]c(Cc3c(Cl)cccc3Cl)n2)COc2ccc(C#CC(C)(C)O)cc21 [Compound I-65, (S)-5-(2,6-dichlorobenzyl)-N-(7-(3-hydroxy-3-methylbut-1-yn-1-yl)-5-methyl-4-oxo-2,3,4,5-tetrahydrobenzo[b][1,4]oxazepin-3-yl)-1H-1,2,4-triazole-3-carboxamide]	63.9	41.5	42
Cc1cccc(C)c1Oc1ccnc(C(=O)N[C@H]2COc3ccc(C#CC(C)(C)O)cc3N(C)C2=O)c1 [Compound I-124, (S)-4-(2,6-dimethylphenoxy)-N-(7-(3-hydroxy-3-methylbut-1-yn-1-yl)-5-methyl-4-oxo-2,3,4,5-tetrahydrobenzo[b][1,4]oxazepin-3-yl)picolinamide]	93.5	2120	88.7
CN1C(=O)[C@@H](NC(=O)c2n[nH]c(Cc3ccccc3)n2)COc2ccc(CCCCO)cc21 [Compound I-15, (S)-5-benzyl-N-(7-(4-hydroxybutyl)-5-methyl-4-oxo-2,3,4,5-tetrahydrobenzo[b][1,4]oxazepin-3-yl)-1H-1,2,4-triazole-3-carboxamide]	136	2200	4.8
CN1C(=O)[C@@H](NC(=O)c2n[nH]c(Cc3ccccc3)n2)COc2cc(C#CC(C)(C)O)ccc21 [Compound I-63, (S)-5-benzyl-N-(8-(3-hydroxy-3-methylbut-1-yn-1-yl)-5-methyl-4-oxo-2,3,4,5-tetrahydrobenzo[b][1,4]oxazepin-3-yl)-1H-1,2,4-triazole-3-carboxamide]	30.3	0.3	1
CN1C(=O)[C@@H](NC(=O)c2ncn(Cc3ccccc3)n2)COc2cc(CN3CCn4nc(C(F)(F)F)nc4C3)ccc21 [Compound I-67, (S)-1-benzyl-N-(5-methyl-4-oxo-8-((2-(trifluoromethyl)-5,6-dihydro-[1,2,4]triazolo[1,5-a]pyrazin-7(8H)-yl)methyl)-2,3,4,5-tetrahydrobenzo[b][1,4]oxazepin-3-yl)-1H-1,2,4-triazole-3-carboxamide]	41.5	8.5	15.2
CN1C(=O)[C@@H](NC(=O)c2n[nH]c(Cc3ccc(F)cc3)n2)COc2ccc(C#CC(C)(C)O)cc21 [Compound I-79, (S)-5-(4-fluorobenzyl)-N-(7-(3-hydroxy-3-methylbut-1-yn-1-yl)-5-methyl-4-oxo-2,3,4,5-tetrahydrobenzo[b][1,4]oxazepin-3-yl)-1H-1,2,4-triazole-3-carboxamide]	34.7	0.8	5.1
CN1C(=O)[C@@H](NC(=O)c2cc(Oc3ccccc3)ccn2)COc2ccc(C#CC3(OC(=O)NCCCN4CCOCC4)COC3)cc21 [Compound I-130]	30.8	89.5	1.5
CN1C(=O)[C@@H](NC(=O)c2n[nH]c(Cc3ccccc3)n2)COc2ccc(C#Cc3ccc4c(c3)CNCC4)cc21 [Compound I-88, (S)-5-benzyl-N-(5-methyl-4-oxo-7-((1,2,3,4-tetrahydroisoquinolin-7-yl)ethynyl)-2,3,4,5-tetrahydrobenzo[b][1,4]oxazepin-3-yl)-1H-1,2,4-triazole-3-carboxamide]	73.8	0.0976	0.7
Cc1cccc(C)c1Cn1cnc(C(=O)N[C@H]2COc3ccc(C#CC(C)(C)C)cc3N(C)C2=O)n1 [Compound I-90, (S)-1-(2,6-dimethylbenzyl)-N-(7-(3,3-dimethylbut-1-yn-1-yl)-5-methyl-4-oxo-2,3,4,5-tetrahydrobenzo[b][1,4]oxazepin-3-yl)-1H-1,2,4-triazole-3-carboxamide]	365	4.6	9.1
CN1C(=O)[C@@H](NC(=O)c2n[nH]c(Cc3ccccc3)n2)COc2cc(C#CC3(O)COC3)ccc21 [Compound I-73, (S)-5-benzyl-N-(8-((3-hydroxyoxetan-3-yl)ethynyl)-5-methyl-4-oxo-2,3,4,5-tetrahydrobenzo[b][1,4]oxazepin-3-yl)-1H-1,2,4-triazole-3-carboxamide]	42.9	2.7	11.7
CN1C(=O)[C@@H](NC(=O)c2cc(OC3CCC3)ccn2)COc2ccc(C#CC3(O)COC3)cc21 [Compound I-153, (S)-4-cyclobutoxy-N-(7-((3-hydroxyoxetan-3-yl)ethynyl)-5-methyl-4-oxo-2,3,4,5-tetrahydrobenzo[b][1,4]oxazepin-3-yl)picolinamide]	32.6	1240	16.1
CN1C(=O)[C@@H](NC(=O)c2cc(Cc3ccc(F)cc3)ccn2)COc2ccc(C#CC3(O)COC3)cc21 [Compound I-126, (S)-4-(4-fluorobenzyl)-N-(7-((3-hydroxyoxetan-3-yl)ethynyl)-5-methyl-4-oxo-2,3,4,5-tetrahydrobenzo[b][1,4]oxazepin-3-yl)picolinamide]	24.6	55.3	3.5
